Columns and labels:
Format in all cases: binding
Design in all cases: KINOMEscan: ABL1(F317L)-phosphorylated / KINOMEscan: ABL1(H396P)-nonphosphorylated / KINOMEscan: ABL1(H396P)-phosphorylated / KINOMEscan: ABL1(M351T)-phosphorylated / KINOMEscan: ABL1(T315I)-phosphorylated / KINOMEscan: ABL1-nonphosphorylated / KINOMEscan: ABL1-phosphorylated / KINOMEscan: ACVR2A / KINOMEscan: ACVR2B / KINOMEscan: ADCK3 / KINOMEscan: ADCK4 / KINOMEscan: AKT1 / KINOMEscan: AKT3 / KINOMEscan: ALK / KINOMEscan: ARK5 / KINOMEscan: AURKA / KINOMEscan: AURKC / KINOMEscan: BIKE / KINOMEscan: BMPR1A / KINOMEscan: BMPR1B / KINOMEscan: BMX / KINOMEscan: BRK / KINOMEscan: BRSK1 / KINOMEscan: BRSK2 / KINOMEscan: CAMK1 / KINOMEscan: CAMK1D / KINOMEscan: CAMK1G / KINOMEscan: CAMK2A / KINOMEscan: CAMK2B / KINOMEscan: AAK1 / KINOMEscan: CAMK2D / KINOMEscan: CAMK2G / KINOMEscan: ABL1(F317I)-nonphosphorylated / KINOMEscan: ABL1(F317I)-phosphorylated / KINOMEscan: ABL1(F317L)-nonphosphorylated: unit: % Ctrl
Conditions in all cases: Compound Concentration 10 µM
panel of 442 kinases [1] = biological target: T1, panel of 442 kinases (Homo sapiens, UniProt Q13188)
T1 construct: purchased KINOMEscan
T1 sequence (Q13188 1-491): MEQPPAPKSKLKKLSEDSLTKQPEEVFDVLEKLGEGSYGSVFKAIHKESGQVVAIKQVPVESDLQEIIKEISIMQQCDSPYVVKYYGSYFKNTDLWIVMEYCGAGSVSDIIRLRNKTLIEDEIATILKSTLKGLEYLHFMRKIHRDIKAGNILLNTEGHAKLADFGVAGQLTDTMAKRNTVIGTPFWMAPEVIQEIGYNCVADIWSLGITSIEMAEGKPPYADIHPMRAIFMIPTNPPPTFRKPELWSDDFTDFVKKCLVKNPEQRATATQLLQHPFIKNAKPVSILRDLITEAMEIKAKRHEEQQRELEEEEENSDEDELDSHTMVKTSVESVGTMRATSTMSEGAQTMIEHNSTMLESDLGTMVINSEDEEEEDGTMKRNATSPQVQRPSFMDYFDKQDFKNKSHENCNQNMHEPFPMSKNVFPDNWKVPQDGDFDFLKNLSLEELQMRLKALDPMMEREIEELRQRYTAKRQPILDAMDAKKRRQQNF
Excerpt: (§1) We assessed the selectivity of members of this scaffold using the KINOMEscan methodology across a near comprehensive panel of 442 kinases [[18,27]].

panel of 442 kinases [2] = biological target: T2, panel of 442 kinases (Homo sapiens, UniProt Q13882)
T2 construct: purchased KINOMEscan
Excerpt: as §1

panel of 442 kinases [3] = biological target: T3, panel of 442 kinases (Homo sapiens, UniProt P42336, E545K)
T3 construct: purchased KINOMEscan
Excerpt: as §1

T2 sequence (Q13882 whole entry): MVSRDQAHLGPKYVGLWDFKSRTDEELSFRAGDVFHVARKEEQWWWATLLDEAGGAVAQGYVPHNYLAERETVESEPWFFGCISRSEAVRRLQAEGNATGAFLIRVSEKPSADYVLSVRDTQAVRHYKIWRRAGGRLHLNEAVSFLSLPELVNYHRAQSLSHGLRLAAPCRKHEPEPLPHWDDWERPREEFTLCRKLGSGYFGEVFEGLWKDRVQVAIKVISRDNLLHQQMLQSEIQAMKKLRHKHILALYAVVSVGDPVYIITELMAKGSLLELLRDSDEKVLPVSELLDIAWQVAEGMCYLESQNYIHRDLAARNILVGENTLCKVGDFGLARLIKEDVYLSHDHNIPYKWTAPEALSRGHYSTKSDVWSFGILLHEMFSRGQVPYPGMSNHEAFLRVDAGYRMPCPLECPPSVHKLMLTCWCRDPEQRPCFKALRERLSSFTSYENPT
T3 sequence (P42336 whole entry E545K): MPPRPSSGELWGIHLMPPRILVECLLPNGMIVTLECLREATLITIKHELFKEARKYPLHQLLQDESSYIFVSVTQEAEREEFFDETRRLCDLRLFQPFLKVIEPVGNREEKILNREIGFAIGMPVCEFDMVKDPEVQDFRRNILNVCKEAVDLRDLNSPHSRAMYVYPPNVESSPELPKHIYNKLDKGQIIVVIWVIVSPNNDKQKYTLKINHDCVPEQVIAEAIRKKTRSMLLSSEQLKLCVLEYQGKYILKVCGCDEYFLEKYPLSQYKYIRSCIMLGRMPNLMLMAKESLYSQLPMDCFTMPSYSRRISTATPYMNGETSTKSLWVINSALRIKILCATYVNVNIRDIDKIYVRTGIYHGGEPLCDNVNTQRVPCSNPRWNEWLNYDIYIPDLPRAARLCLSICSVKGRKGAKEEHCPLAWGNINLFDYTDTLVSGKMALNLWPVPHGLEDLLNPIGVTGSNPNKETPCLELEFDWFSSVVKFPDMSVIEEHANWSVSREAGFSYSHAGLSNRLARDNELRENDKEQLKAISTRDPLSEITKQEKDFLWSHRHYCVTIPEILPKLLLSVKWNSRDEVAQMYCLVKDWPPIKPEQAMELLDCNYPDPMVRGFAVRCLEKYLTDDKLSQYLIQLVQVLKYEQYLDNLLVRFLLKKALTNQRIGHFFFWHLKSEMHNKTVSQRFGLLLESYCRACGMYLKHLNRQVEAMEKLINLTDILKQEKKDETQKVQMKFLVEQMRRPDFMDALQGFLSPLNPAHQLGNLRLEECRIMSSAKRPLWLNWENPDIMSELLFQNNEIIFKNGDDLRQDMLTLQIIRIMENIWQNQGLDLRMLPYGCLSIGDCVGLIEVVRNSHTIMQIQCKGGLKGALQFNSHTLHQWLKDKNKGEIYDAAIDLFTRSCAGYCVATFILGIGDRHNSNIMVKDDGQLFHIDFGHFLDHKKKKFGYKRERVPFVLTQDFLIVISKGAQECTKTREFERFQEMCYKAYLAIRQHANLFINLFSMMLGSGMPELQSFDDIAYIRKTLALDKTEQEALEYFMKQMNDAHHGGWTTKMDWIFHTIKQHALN

Row | SMILES | KINOMEscan: MST2 (panel of 442 kinases [1]) | KINOMEscan: BRK (panel of 442 kinases [2]) | KINOMEscan: PIK3CA(E545K) (panel of 442 kinases [3])
1 | CCOc1cc(C(=O)N2CCC(N3CCN(C)CC3)CC2)ccc1Nc1ncc2c(n1)N(C1CCCC1)c1ccccc1C(=O)N2C [Compound 26] | 100 | 62 | 100
2 | COc1cc(C(=O)N2CCC(N3CCN(C)CC3)CC2)ccc1Nc1ncc2c(n1)N(C1CCCC1)c1ccccc1C(=O)N2C [Compound 25, 11-cyclopentyl-2-((2-methoxy-4-(4-(4-methylpiperazin-1-yl)piperidine-1-carbonyl)phenyl)amino)-5-methyl-5H-benzo[e]pyrimido[5,4-b][1,4]diazepin-6(11H)-one] | 100 | 29 | 100
3 | COc1cc(C(=O)N2CCC(N3CCN(C)CC3)CC2)ccc1Nc1ncc2c(n1)N1CCc3cccc(c31)C(=O)N2C [Compound 24] | – | 54 | –
4 | COc1cc(C(=O)N2CCC(N3CCN(C)CC3)CC2)ccc1Nc1ncc2c(n1)N(C)c1ccccc1C(=O)N2C [15 (LRRK2-IN-1)] | 71 | 58 | 100
